Measured values published in patent publication US20260176289A1, “SMALL MOLECULE INHIBITORS OF KRAS PROTEINS” (Merck Sharp & Dohme LLC, priority 2022, published 2026).

Assays:
KRAS-WT = KRAS-WT (Homo sapiens, UniProt P01116); test: SOS-catalyzed nucleotide exchange assay (Procedure A, TR-FRET), KRAS-WT; type: biochemical; settings: nucleotide exchange, read-out: KRAS WT GNE IC50
Outline: (§1)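 RAS (G12C carries C51S/C80L/C118S) loaded with Bodipy-GDP, complexed with Tb-streptavidin; cpd 60 min RT; + SOS/3 mM GTP. G12C 3/40 nM, WT 1/40, NRAS 1.25/40 nM RAS/SOS, 60 min; G12V 1.25/160 nM, 90 min. Normalized to DMSO and saturating inhibitor; 4PL fit.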

KRAS-G12D = KRAS-G12D (Homo sapiens, UniProt P01116, G12D); test: SOS-catalyzed nucleotide exchange assay (Procedure A, TR-FRET), KRAS-G12D; type: biochemical; settings: nucleotide exchange, read-out: KRAS G12D GNE IC50
Outline: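 Signal ratio (520/495 nm, excitation 340 nm) reports Bodipy-GDP retention on biotinylated RAS after SOS-catalyzed exchange with 3 mM GTP. SOS was 40 nM, except 160 nM for G12V. Room-temperature exchange lasted 60 min (90 min for G12V), following a 60 min compound preincubation.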

KRAS-G12V = KRAS-G12V (Homo sapiens, UniProt P01116, G12V); test: SOS-catalyzed nucleotide exchange assay (Procedure A, TR-FRET), KRAS-G12V; type: biochemical; settings: nucleotide exchange, read-out: KRAS G12V GNE IC50
Outline: as §1

MKN-1 cells = test: Cellular phospho-ERK assay, MKN-1 cells (amplified wild-type KRAS); type: cell-based; settings: Homo sapiens, 2 hours compound incubation, read-out: MKN1 pERK IC50
Outline: (§2)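 Overnight-plated cells on collagen received test compound (up to 30 μM final, threefold steps, ten concentrations) for two hours. After lysis at room temperature, phosphorylated and total ERK were quantified together by Alpha SureFire, and IC50 is based on the phospho-to-total signal ratio.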

AsPC-1 cells = test: Cellular phospho-ERK assay, AsPC-1 cells (homozygous KRAS-G12D); type: cell-based; settings: Homo sapiens, ASPC1, 2 h, 2 hours compound incubation, read-out: AsPC1 pERK IC50
Outline: as §2

SW620 cells = test: Cellular phospho-ERK assay, SW620 cells (homozygous KRAS-G12V); type: cell-based; settings: Homo sapiens, SW-620, 2 hours compound incubation, read-out: SW620 pERK IC50
Outline: as §2

Chain of KRAS-G12V (P01116 with tags, fused parts or gaps isoform P01116-2 G12V): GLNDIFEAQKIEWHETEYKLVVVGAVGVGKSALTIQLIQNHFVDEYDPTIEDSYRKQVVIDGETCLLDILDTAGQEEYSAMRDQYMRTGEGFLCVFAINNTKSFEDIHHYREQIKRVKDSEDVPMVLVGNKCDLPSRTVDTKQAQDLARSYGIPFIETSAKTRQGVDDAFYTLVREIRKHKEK
Chain of KRAS-WT (P01116 with tags, fused parts or gaps isoform P01116-2): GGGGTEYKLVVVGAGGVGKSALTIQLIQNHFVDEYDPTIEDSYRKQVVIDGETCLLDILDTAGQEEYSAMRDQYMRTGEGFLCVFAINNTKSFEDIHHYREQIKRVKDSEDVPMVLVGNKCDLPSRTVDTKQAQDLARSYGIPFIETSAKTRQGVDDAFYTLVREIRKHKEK
Chain of KRAS-G12D (P01116 with tags, fused parts or gaps isoform P01116-2 G12D): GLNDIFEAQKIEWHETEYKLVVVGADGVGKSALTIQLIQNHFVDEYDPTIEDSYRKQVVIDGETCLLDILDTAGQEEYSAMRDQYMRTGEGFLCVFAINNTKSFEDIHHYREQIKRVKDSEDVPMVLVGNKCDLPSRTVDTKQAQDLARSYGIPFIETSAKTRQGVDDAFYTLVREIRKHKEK

IC50 (KRAS-WT) [nM] | IC50 (KRAS-G12D) [nM] | IC50 (KRAS-G12V) [nM] | IC50 (MKN-1 cells) [nM] | IC50 (AsPC-1 cells) [nM] | IC50 (SW620 cells) [nM] | Structure (SMILES)
38.2 | 18.9 | 50.1 | 56.9 | 161 | 61.1 | C#CC1=CCCc2cc3[nH]ncc3c(-c3nccc4c3sc3nc(OC[C@@]56CCCN5C[C@H](F)C6)nc(N5CCOC[C@@](C)(O)C5)c34)c21 [Ex-173, (6S)-4-(8-(5-ethynyl-7,8-dihydro-1H-benzo[f]indazol-4-yl)-2-(((2R,7aS)-2-fluorotetrahydro-1H-pyrrolizin-7a(5H)-yl)methoxy)pyrido[4′,3′:4,5]thieno[2,3-d]pyrimidin-4-yl)-6-methyl-1,4-oxazepan-6-ol]
63.8 | 23.6 | 26.2 | 73.6 | 254 | 91.1 | C/C=C1\CCCc2cc3[nH]ncc3c(-c3nccc4c3sc3nc(OC[C@@]56CCCN5C[C@H](F)C6)nc(N5CCOC[C@@](C)(O)C5)c34)c21 [Ex-174, (6S)-4-(8-((E)-5-ethyl-idene-5,6,7,8-tetrahydro-1H-benzo[f]indazol-4-yl)-2-(((2R,7aS)-2-fluoro-tetrahydro-1H-pyrrolizin-7a(5H)-yl)methoxy)pyr-ido[4′,3′:4,5]thieno[2,3-d]pyrimidin-4-yl)-6-meth-yl-1,4-oxazepan-6-ol]
186 | 82.1 | 66.3 | 324 | 856 | 278 | C#C[C@@H]1CCCc2cc3[nH]ncc3c(-c3nccc4c3sc3nc(OC[C@@]56CCCN5C[C@H](F)C6)nc(N5CCOC[C@@](C)(O)C5)c34)c21 [Ex-175]
432 | 200 | 186 | 513 | 393 | 459 | Cc1cc2[nH]ncc2c(-c2nccc3c2sc2nc(OC[C@@]45CCCN4C[C@H](F)C5)nc(N4CCOCC5(CCCO5)C4)c23)c1C(F)(F)F (stereo partly drawn) [Ex-197, 10-(2-(((2R,7aS)-2-fluoro-tetrahydro-1H-pyrrolizin-7a(5H)-yl)methoxy)-8-(6-methyl-5-(trifluorometh-yl)-1H-indazol-4-yl)pyrido [4′,3′:4,5]thieno[2,3-d]pyrimidin-4-yl)-1,7-dioxa-10-azaspiro[4.6]undecane]
132 | 36 | 33.5 | 120 | 140 | 74.3 | Cc1cc2[nH]ncc2c(-c2nccc3c2sc2nc(OC[C@@]45CCCN4C[C@H](F)C5)nc(N4CCOC[C@]5(CCO5)C4)c23)c1C(F)(F)F [Ex-198, (4S)-9-(2-(((2R,7aS)-2-fluorotetrahydro-1H-pyr-rolizin-7a(5H)-yl)meth-oxy)-8-(6-methyl-5-(tri-fluoromethyl)-1H-indazol-4-yl)pyrido[4′,3′:4,5]thieno[2,3-d]pyrimidin-4-yl)-1,6-dioxa-9-azaspiro [3.6]decane]
287 | 86.8 | 92.6 | 313 | 374 | 190 | Cc1cc2[nH]ncc2c(-c2nccc3c2sc2nc(OC[C@@]45CCCN4C[C@H](F)C5)nc(N4CCOCC5(CC(C)O5)C4)c23)c1C(F)(F)F (stereo partly drawn) [Ex-199, 9-(2-(((2R,7aS)-2-fluoro-tetrahydro-1H-pyrrolizin-7a(5/7)-yl)methoxy)-8-(6-methyl-5-(trifluorometh-yl)-1H-indazol-4-yl)pyrido [4′,3′:4,5]thieno[2,3-d]pyr-imidin-4-yl)-2-methyl-1,6-dioxa-9-azaspiro[3.6] decane]
404 | 285 | 206 | 373 | 923 | 220 | CCC1(O)COCCN(c2nc(OC[C@@]34CCCN3C[C@H](F)C4)nc3sc4c(-c5c(C(F)(F)F)c(C)cc6[nH]ncc56)nccc4c23)C1 (stereo partly drawn) [Ex-201, 6-ethyl-4-(2-(((2R,7aS)-2-fluorotetrahydro-1H-pyr-rolizin-7a(5H)-yl)meth-oxy)-8-(6-methyl-5-(tri-fluoromethyl)-1H-indazol-4-yl)pyrido[4′,3′:4,5]thieno[2,3-d]pyrimidin-4-yl)-1,4-oxazepan-6-ol]
17.8 | 4.75 | 39.8 | 89.8 | 67.3 | 56.1 | C[C@@]1(O)COCCN(c2nc(OC[C@@]34CCCN3C[C@]3(CC3(F)F)C4)nc3sc4c(-c5c(C6CC6)c(Cl)cc6[nH]ncc56)nccc4c23)C1 [Ex-212, (6S)-4-(8-(6-chloro-5-cyclopropyl-1H-indazol-4-yl)-2-(((1R,7a'S)-2,2-difluorodihydro-1′H,3′H-spiro[cyclo-propane-1,2′-pyrrol-izin]-7a′(5′H)-yl)-methoxy)pyrido [4′,3′:4,5]thieno[2,3-d]pyrimidin-4-yl)-6-methyl-1,4-oxaze-pan-6-ol]
12.2 | 3.5 | 11.2 | 66.4 | 48.3 | 42.9 | C[C@@]1(O)COCCN(c2nc(OC[C@]3(CN4CC5(COC5)C4)CC3(F)F)nc3sc4c(-c5c(C6CC6)c(Cl)cc6[nH]ncc56)nccc4c23)C1 [Ex-213, (6S)-4-(2-(((R)-1-((2-oxa-6-azaspiro [3.3]heptan-6-yl)-methyl)-2,2-difluoro-cyclopropyl)meth-oxy)-8-(6-chloro-5-cyclopropyl-1H-indazol-4-yl)pyrido [4′,3′:4,5]thieno [2,3-d]pyrimidin-4-yl)-6-methyl-1,4-oxazepan-6-ol]
498 | 62.8 | 243 | 171 | 136 | 107 | CC1(O)COCCN(c2nc(OCC3(CN4CC5C(F)C5C4)CC3(F)F)nc3sc4c(-c5c(C6CC6)c(Cl)cc6[nH]ncc56)nccc4c23)C1 [Ex-214, (6S)-4-(8-(6-chloro-5-cyclopropyl-1H-indazol-4-yl)-2-(((R)-2,2-difluoro-1-(((1R,5S,6R)-6-fluoro-3-azabicyclo [3.1.0]hexan-3-yl)-methyl)cycloprop-yl)methoxy)pyrido [4′,3′:4,5]thieno[2,3-d]pyrimidin-4-yl)-6-methyl-1,4-oxaze-pan-6-ol]
8.85 | 3.46 | 13.1 | 46.9 | 47.7 | 10.9 | CN1CCC[C@@]2(COc3nc(N4CCOC[C@@](C)(O)C4)c4c(n3)sc3c(-c5c(C6CC6)c(Cl)cc6[nH]ncc56)nccc34)CCC[C@@H]12 [Ex-217, (6S)-4-(8-(6-chloro-5-cyclopropyl-1H-indazol-4-yl)-2-(((4aS,7aR)-1-meth-yloctahydro-4aH-cyclopenta[b]pyridin-4a-yl)meth-oxy)pyrido[4′,3′:4,5]thieno[2,3-d]pyrimi-din-4-yl)-6-methyl-1,4-oxazepan-6-ol]
255 | 82.7 | 196 | 318 | 305 | 230 | C[C@@]1(O)COCCN(c2nc(OC[C@@]34C[C@H](F)CN3CC3(CC3)C4)nc3sc4c(-c5c(C6CC6)c(Cl)cc6[nH]ncc56)nccc4c23)C1 [Ex-219, (6S)-4-(8-(6-chloro-5-cyclopropyl-1H-indazol-fluoro-dihydro-1H,3′H-spiro[cyclopropane-1,2′-yl)methoxy)-pyrido[4′,3′:4,5]thieno[2,3-d]pyr-imidin-4-yl)-6-methyl-1,4-oxaze-pan-6-ol]
72.3 | 27.8 | 70.6 | 171 | 176 | 130 | C[C@@]1(O)COCCN(c2nc(OC[C@]34C[C@@H](F)CN3CC3(CC3)C4)nc3sc4c(-c5c(C6CC6)c(Cl)cc6[nH]ncc56)nccc4c23)C1 [Ex-220, (6S)-4-(8-(6-chloro-5-cyclopropyl-1H-indazol-4-yl)-2-(((6R,7a′S)-6′-fluorodihydro-1H, 3H-spiro[cyclopro-pane-1,2′-pyrrol-izin]7a′(5′H)-yl)-methoxy)pyrido [4′,3′:4,5]thieno[2,3-d]pyrimidin-4-yl)-6-methyl-1,4-oxaze-pan-6-ol]
53 | 16 | 38.2 | 180 | 379 | 133 | CO[C@@H]1CN2CCC[C@@]2(COc2nc(N3CCOC[C@@](C)(O)C3)c3c(n2)sc2c(-c4c(C5CC5)c(Cl)cc5[nH]ncc45)nccc23)C1 [Ex-228, (6S)-4-(8-(6-chloro-5-cyclopropyl-1H-indazol-4-yl)-2-(((25,7aS)-2-meth-oxytetrahydro-1H-pyrrolizin-7a(5H)-yl)methoxy)pyrido [4′,3′:4,5]thieno[2,3-d]pyrimidin-4-yl)-6-methyl-1,4-oxaze-pan-6-ol]
